Results from patent US20240018151A1, “NOVEL INHIBITORS OF PIKFYVE AND METHODS USING SAME” (priority 2020, published 2024).
Like-named read-outs stand apart in the source and are kept apart here.

Experiments:
[1] = biological target: T1, PIKFYVE (Homo sapiens (Human), UniProt Q9Y2I7); assay: KINOMEScan Kinase Assay, PIKFYVE binding; conditions: for % Inhib. (50 nM): 50 nM compound; for inhibition at 0.05 µM: read-out: % Inhib. (50 nM)
[2] = in vitro; conditions: hamster
[3] = tested on: SARS-CoV-2 spike pseudovirus in BHK21/hACE2 cells; assay: microbe, parasite or virus in culture; assay type: cell-based; conditions: Severe acute respiratory syndrome coronavirus 2, BHK-21
[4] = tested on: influenza A strain California/07/09 (H1N1) pdm09 in MDCK cells; assay: Influenza A IFA assay (CPE inhibition, neutral red); assay type: cell-based; conditions: Influenza A virus
[5] = Cytotoxicity (CC50) in Influenza A assay; assay type: cell-based; conditions: dog; Influenza A IFA Assay; MDCK cells
Method: Influenza A IFA: Test compounds are solubilized in DMSO to prepare 20 mg/mL stock solutions. Compounds are then serially diluted using eight half-log dilutions in test media so that the starting (high) test concentration is 100 μg/mL. Each dilution is added to 5 wells of a 96-well plate with 80-100% confluent MDCK cells. Three wells of each dilution are infected with virus (strain influenza A strain California/07/09 (H1N1) pdm09), and two wells remain uninfected as toxicity controls. As virus controls, six wells are infected but untreated, and as cell controls, six wells are uninfected and untreated. Each virus is prepared to achieve an MOI (multiplicity of infection) of 0.001. A positive control compound is tested in parallel. Plates are incubated at 37° C. under 5% CO2 atmosphere. On day 3 post-infection (once untreated virus control cells reached maximum cytopathic effect, CPE), plates are stained with neutral red dye for 2 hours. Supernatant dye is removed and the wells are rinsed with PBS. The incorporated dye is extracted using 50:50 Sorensen citrate buffer/ethanol for at least 30 minutes, and the optical density is read at […] on a spectrophotometer. […] The selectivity index (SI) is calculated as CC50 divided by EC50. […]

[6] = tested on: SARS-CoV-2 in Vero cells; assay: SARS-CoV-2 immunofluorescence assay (IFA); assay type: cell-based; conditions: Severe acute respiratory syndrome coronavirus 2, SARS-CoV2 IFA Assay
[7] = biological target: T1, PIKFYVE; assay: ADP-GLO Kinase Assay, PIKFYVE inhibitory activity; assay type: biochemical; conditions: substrate PI3P 10,000 nM
Method: (§1) Briefly, 4× compound solution and 4×ATP solution are prepared with assay buffer (50 mM MOPS, 1 mM DTT, pH7.2). 4× Substrate solution and 4× kinase/Metal solution are prepared with MOPS based buffer containing individual kinase specific additives. Then, […] of 4× compound solution, 5 μL of 4× Substrate solution, 5 μL of 4×ATP solution, and 5 μL of 4× kinase/Metal solution are mixed and incubated in a well of polystyrene 384 well black microplate for 1 hour at room temperature. Next, 20 μL of ADP-Glo™ Reagent (Promega) is added to the well, and incubated for over 40 minutes. 40 μL of Kinase Detection Reagent (Promega) is added to the well, and incubated for over 40 minutes. The kinase reaction is evaluated by the endpoint luminescence of the well.
For measurement of PIKFYVE activity, the substrate is PI3P at 10,000 nM concentration, using AG-182 as a positive control. The metal used is magnesium at 5 mM concentration.

[8] = tested on: HuT-78 (T cell lymphoma) cells; assay: Anti-proliferative assay (CellTiter-Glo), HuT-78; assay type: cell-based; conditions: Homo sapiens, HuT78, 144 h, six days incubation
Method: (§2) Selected compounds are evaluated for their anti-proliferative activity against human cutaneous T-cell lymphoma and multiple myeloma cell lines.
(§3) HuT-78 (T cell lymphoma) cells or JJN3 (multiple myeloma) cells are cultured in RPMI-1640 with 10% FBS and 1% penicillin/streptomycin. 45 μL suspensions of cells are transferred to the wells of 384-well plate for a density of 1,000 cells per well. The plates are incubated overnight at 37° C. under 5% CO2 atmosphere. Test compounds are dissolved in 100% DMSO at a 2 mM concentration, then diluted 20× in assay medium for to provide a 5% DMSO concentration and 100 μM compound concentration. 5 μL of this compound solution is added to the 45 μL cell suspension in the assay plate for a top plate concentration of 10 μM and 0.5% DMSO concentration. For positive controls, 10 μM APY0201 is added instead of the compound solution. After spinning at 1000 rpm for 1 minutes, the cell plate is placed in the incubator […] at 37° C. under 5% CO2 atmosphere. After incubation for six days, the cell plate is equilibrated to room temperature for 20 minutes. 25 μL of CellTiter-Glo (CTG) reagent (Promega Cat No. G7572) is added to each well, and the plate is shaken for 15 minutes at 300 rpm. Luminescence is read on an Envision plate reader.

[9] = tested on: JJN3 (multiple myeloma) cells; assay: Anti-proliferative assay (CellTiter-Glo), JJN3; assay type: cell-based; conditions: Homo sapiens, JJN-3, 144 h, six days incubation
Method: as §2, §3

[10] = tested on: PIK3CA, PIP4K2A, PIP4K2B, PIP4K1A, PIP4K1B, PIP4K1C, PIP5KL1; assay: Comparative Kinase Assays (selectivity versus other lipid kinases); assay type: biochemical
Method: as §1
To determine whether the compounds are selective, the assay is repeated using appropriate substrates for different test enzymes:
The compounds of Examples 1, 3 and 6 are tested against these enzymes: […]

[11] = Cytotoxicity (CC50) in SARS-CoV-2 IFA; assay type: cell-based; conditions: African green monkey; SARS-CoV2 IFA Assay; Vero cells
Method: SARS-CoV-2 IFA: In 384-well plates, Vero cells re seeded at an appropriate density and cultured at 37° C. and 5% CO2. Serially diluted (10 concentrations, in duplicates) test/reference compounds are added. Then the cells are infected with virus. The resulting cultures are incubated for an additional 1 day. The cells are then fixed and analyzed by immunofluorescence. EC50 and CC50 values are calculated with GraphPad Prism software.

T1 sequence (Q9Y2I7 whole entry): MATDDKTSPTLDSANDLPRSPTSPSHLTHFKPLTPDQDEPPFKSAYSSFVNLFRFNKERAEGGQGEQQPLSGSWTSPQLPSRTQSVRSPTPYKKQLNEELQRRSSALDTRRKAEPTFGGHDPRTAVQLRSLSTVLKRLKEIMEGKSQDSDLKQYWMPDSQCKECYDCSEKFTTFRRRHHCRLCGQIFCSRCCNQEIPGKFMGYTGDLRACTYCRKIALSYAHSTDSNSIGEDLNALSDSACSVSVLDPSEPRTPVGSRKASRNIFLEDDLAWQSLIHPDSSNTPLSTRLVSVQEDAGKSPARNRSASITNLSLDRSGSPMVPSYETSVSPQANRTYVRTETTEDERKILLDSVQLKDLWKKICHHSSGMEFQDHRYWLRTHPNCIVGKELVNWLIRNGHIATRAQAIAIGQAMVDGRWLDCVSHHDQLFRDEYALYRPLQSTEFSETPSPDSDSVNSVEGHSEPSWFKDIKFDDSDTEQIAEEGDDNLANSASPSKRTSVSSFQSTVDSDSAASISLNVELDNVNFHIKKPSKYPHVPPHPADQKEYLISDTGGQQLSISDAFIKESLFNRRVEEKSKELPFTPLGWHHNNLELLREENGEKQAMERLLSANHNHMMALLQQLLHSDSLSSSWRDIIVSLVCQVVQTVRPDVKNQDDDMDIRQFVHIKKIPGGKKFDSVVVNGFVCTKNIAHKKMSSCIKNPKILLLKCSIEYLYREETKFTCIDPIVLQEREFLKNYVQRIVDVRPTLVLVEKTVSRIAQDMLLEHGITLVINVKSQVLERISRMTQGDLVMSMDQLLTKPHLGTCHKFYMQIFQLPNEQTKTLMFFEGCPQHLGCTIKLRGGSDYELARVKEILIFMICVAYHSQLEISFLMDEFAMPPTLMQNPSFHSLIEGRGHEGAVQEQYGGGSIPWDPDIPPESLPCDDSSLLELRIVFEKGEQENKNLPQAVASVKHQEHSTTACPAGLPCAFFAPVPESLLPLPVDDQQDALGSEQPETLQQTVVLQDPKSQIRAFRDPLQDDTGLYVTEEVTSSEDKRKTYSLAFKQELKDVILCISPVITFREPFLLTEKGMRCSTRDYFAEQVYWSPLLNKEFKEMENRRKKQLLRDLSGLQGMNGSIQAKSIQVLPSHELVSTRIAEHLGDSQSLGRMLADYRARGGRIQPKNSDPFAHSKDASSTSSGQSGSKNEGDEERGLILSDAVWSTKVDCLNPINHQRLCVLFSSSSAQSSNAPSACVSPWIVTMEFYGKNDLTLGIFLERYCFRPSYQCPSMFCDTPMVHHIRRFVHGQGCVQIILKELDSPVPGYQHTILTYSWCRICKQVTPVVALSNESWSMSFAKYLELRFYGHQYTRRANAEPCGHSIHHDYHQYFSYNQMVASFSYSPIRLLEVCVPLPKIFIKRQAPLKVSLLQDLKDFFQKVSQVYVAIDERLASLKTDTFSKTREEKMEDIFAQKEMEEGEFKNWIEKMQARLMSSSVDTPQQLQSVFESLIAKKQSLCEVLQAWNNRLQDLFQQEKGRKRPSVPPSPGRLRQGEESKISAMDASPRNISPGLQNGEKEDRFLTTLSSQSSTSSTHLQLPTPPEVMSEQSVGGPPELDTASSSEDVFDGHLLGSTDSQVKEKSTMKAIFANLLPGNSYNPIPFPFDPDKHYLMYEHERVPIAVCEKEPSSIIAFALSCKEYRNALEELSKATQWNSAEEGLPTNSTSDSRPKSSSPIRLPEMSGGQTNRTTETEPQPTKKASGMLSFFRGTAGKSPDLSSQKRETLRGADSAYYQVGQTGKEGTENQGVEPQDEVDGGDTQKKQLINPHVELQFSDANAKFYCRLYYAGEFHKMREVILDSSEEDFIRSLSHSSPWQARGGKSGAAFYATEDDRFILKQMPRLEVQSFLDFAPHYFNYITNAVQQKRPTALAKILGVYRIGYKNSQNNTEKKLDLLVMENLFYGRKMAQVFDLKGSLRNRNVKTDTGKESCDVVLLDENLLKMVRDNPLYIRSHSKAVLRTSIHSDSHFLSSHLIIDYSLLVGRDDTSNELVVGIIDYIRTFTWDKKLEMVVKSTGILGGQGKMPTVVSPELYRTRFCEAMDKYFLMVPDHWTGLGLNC

Compound: 4-(2-(pyridin-4-yl)-5-(3-(3-(trifluoromethyl)phenyl)-1H-pyrazol-1-yl)pyrazolo[1,5-a]pyrimidin-7-yl)morpholine [Ex. 21]
- % Inhib. (50 nM) ([1]; KINOMEScan Kinase Assay): ++ (>50%-80%)

Compound: Cc1cccc(/C=N/Nc2cc(N3CCOCC3)nc(OCCc3ccccn3)n2)c1 [Apilimod, reference compound]
- CC50 [2]: 8000 nM
- EC50 [3]: < 10 nM

Compound: CCN(CC)CCCC(C)Nc1ccnc2cc(Cl)ccc12 (centres unmarked) [Chloroquine, chloroquine, reference compound]
- CC50 [2]: 35000 nM
- EC50 [3]: 6000 nM

Compound: Cc1cccc(-c2ccn(-c3cc(N4CCOCC4)n4nc(-c5ccncc5)cc4n3)n2)c1 [Ex. 1]
- EC50 [4]: 1000 to 5000 nM
- CC50 [5]: > 20000 nM
- EC50 [6]: 100 to 1000 nM
- IC50 [7]: < 50 nM
- IC50 [8]: 100 to 1000 nM
- IC50 [9]: < 100 nM
- CC50 [2]: 5000 to 10000 nM
- Fold Selectivity for PIKFYVE [10]: >100-fold
- Kd [1]: < 1 nM
- EC50 [3]: < 10 nM
- CC50 at 1 day [11]: > 20000 nM

Compound: Fc1cccc(-c2ccn(-c3cc(N4CCOCC4)n4nc(-c5ccncc5)cc4n3)n2)c1 [Ex. 2]
- IC50 [7]: < 50 nM
- inhibition at 0.05 µM [1]: 50 to 80%

Compound: Brc1cccc(-c2ccn(-c3cc(N4CCOCC4)n4nc(-c5ccncc5)cc4n3)n2)c1 [Ex. 3]
- EC50 [4]: 5000 to 10000 nM
- CC50 [5]: > 20000 nM
- EC50 [6]: 1000 to 5000 nM
- CC50 [2]: > 10000 nM
- inhibition at 0.05 µM [1]: 80 to 100%
- EC50 [3]: < 10 nM
- CC50 at 1 day [11]: > 20000 nM

Compound: N#Cc1cccc(-c2ccn(-c3cc(N4CCOCC4)n4nc(-c5ccncc5)cc4n3)n2)c1 [Ex. 4]
- IC50 [7]: < 50 nM
- inhibition at 0.05 µM [1]: 50 to 80%

Compound: CC(C)(C)c1ccn(-c2cc(N3CCOCC3)n3nc(-c4ccncc4)cc3n2)n1 [Ex. 5]
- IC50 [7]: > 1000 nM
- inhibition at 0.05 µM [1]: < 50%

Compound: COc1cccc(-c2ccn(-c3cc(N4CCOCC4)n4nc(-c5ccncc5)cc4n3)n2)c1 [Ex. 6]
- IC50 [7]: < 50 nM
- IC50 [8]: 100 to 1000 nM
- IC50 [9]: < 100 nM
- CC50 [2]: 5000 to 10000 nM
- Fold Selectivity for PIKFYVE [10]: >200-fold
- Kd [1]: < 1 nM
- EC50 [3]: < 10 nM

Compound: Cc1ccccc1-c1ccn(-c2cc(N3CCOCC3)n3nc(-c4ccncc4)cc3n2)n1 [Ex. 7]
- IC50 [7]: 50 to 1000 nM
- inhibition at 0.05 µM [1]: < 50%

Compound: Fc1ccccc1-c1ccn(-c2cc(N3CCOCC3)n3nc(-c4ccncc4)cc3n2)n1 [Ex. 8]
- IC50 [7]: < 50 nM
- inhibition at 0.05 µM [1]: 50 to 80%

Compound: Fc1ccc(-c2ccn(-c3cc(N4CCOCC4)n4nc(-c5ccncc5)cc4n3)n2)cc1 [Ex. 9]
- IC50 [7]: < 50 nM
- inhibition at 0.05 µM [1]: 50 to 80%

Compound: FC(F)(F)c1ccc(-c2ccn(-c3cc(N4CCOCC4)n4nc(-c5ccncc5)cc4n3)n2)cc1 [Ex. 10]
- IC50 [7]: > 1000 nM
- inhibition at 0.05 µM [1]: < 50%

Compound: COc1cccc(-c2ccn(-c3cc(N4CCO[C@H](C)C4)n4nc(-c5ccncc5)cc4n3)n2)c1 [Ex. 11]
- Kd ([1]; KINOMEScan Kinase Assay): 5 to 10 nM

Compound: COc1cccc(-c2ccn(-c3cc(N4CCO[C@@H](C)C4)n4nc(-c5ccncc5)cc4n3)n2)c1 [Ex. 12]
- % Inhib. (50 nM) ([1]; KINOMEScan Kinase Assay): +++ (>80%-100%)

Compound: COc1cccc(-c2ccn(-c3cc(N4CCOC[C@@H]4C)n4nc(-c5ccncc5)cc4n3)n2)c1 [Ex. 13]
- % Inhib. (50 nM) ([1]; KINOMEScan Kinase Assay): +++ (>80%-100%)

Compound: COc1cccc(-c2ccn(-c3cc(N4CCOC[C@H]4C)n4nc(-c5ccncc5)cc4n3)n2)c1 [Ex. 14]
- Kd ([1]; KINOMEScan Kinase Assay): 5 to 10 nM

Compound: COc1cccc(-c2ccn(-c3cc(N4CCOCC4)n4nc(-c5ccncc5)cc4n3)n2)c1 [Ex. 15]
- Kd ([1]; KINOMEScan Kinase Assay): 1 to 5 nM

Compound: Cc1cccc(-c2ccn(-c3cc(N4CCOCC4)n4nc(-c5ccncc5)cc4n3)n2)c1 [Ex. 17]
- Kd ([1]; KINOMEScan Kinase Assay): < 1 nM

Compound: [O-][n+]1ccc(-c2cc3nc(-n4ccc(-c5cccc(Br)c5)n4)cc(N4CCOCC4)n3n2)cc1 [Ex. 18, 4-(5-(3-(3-bromophenyl)-1H-pyrazol-1-yl)-7-morpholinopyrazolo[1,5-a]pyrimidin-2-yl)pyridine 1-oxide]
- Kd [1]: < 1 nM

Compound: FC(F)(F)Oc1cccc(-c2ccn(-c3cc(N4CCOCC4)n4nc(-c5ccncc5)cc4n3)n2)c1 [Ex. 22, 4-(2-(pyridin-4-yl)-5-(3-(3-(trifluoromethoxy)phenyl)-1H-pyrazol-1-yl)pyrazolo[1,5-a]pyrimidin-7-yl)morpholine]
- inhibition at 0.05 µM [1]: < 50%

Compound: CCOc1cccc(-c2ccn(-c3cc(N4CCOCC4)n4nc(-c5ccncc5)cc4n3)n2)c1 [Ex. 23, 4-(5-(3-(3-ethoxyphenyl)-1H-pyrazol-1-yl)-2-(pyridin-4-yl)pyrazolo[1,5-a]pyrimidin-7-yl)morpholine]
- inhibition at 0.05 µM [1]: < 50%

Compound: Cc1cccc(-c2ccn(-c3cc(N4CCOCC4)n4nc(Br)cc4n3)n2)c1 [Ex. 24, 4-(2-bromo-5-(3-(m-tolyl)-1H-pyrazol-1-yl)pyrazolo[1,5-a]pyrimidin-7-yl)morpholine]
- Kd [1]: 1 to 5 nM

Compound: Cc1cccc(-c2ccn(-c3cc(N4CCOCC4)n4nc(-c5ccnnc5)cc4n3)n2)c1 [Ex. 25, 4-(2-(pyridazin-4-yl)-5-(3-(m-tolyl)-1H-pyrazol-1-yl)pyrazolo[1,5-a]pyrimidin-7-yl)morpholine]
- Kd [1]: < 1 nM

Compound: Cc1cccc(-c2ccn(-c3cc(N4CCOCC4)n4nc(C5=CCN(C(=O)OC(C)(C)C)CC5)cc4n3)n2)c1 [Ex. 26, tert-butyl4-(7-morpholino-5-(3-(m-tolyl)-1H-pyrazol-1-yl)pyrazolo[1,5-a]pyrimidin-2-yl)-3,6-dihydropyridine-1(2H)-carboxylate]
- inhibition at 0.05 µM [1]: 80 to 100%

Compound: C=Cc1cc2nc(-n3ccc(-c4cccc(C)c4)n3)cc(N3CCOCC3)n2n1 [Ex. 27, 4-(5-(3-(m-tolyl)-1H-pyrazol-1-yl)-2-vinylpyrazolo[1,5-a]pyrimidin-7-yl)morpholine]
- inhibition at 0.05 µM [1]: 80 to 100%

Compound: Cc1cccc(-c2ccn(-c3cc(N4CCOCC4)n4nc(C5=CCNCC5)cc4n3)n2)c1 [Ex. 28, 4-(2-(1,2,3,6-tetrahydropyridin-4-yl)-5-(3-(m-tolyl)-1H-pyrazol-1-yl)pyrazolo[1,5-a]pyrimidin-7-yl)morpholine]
- Kd [1]: 1 to 5 nM

Compound: Cc1cccc(-c2ccn(-c3cc(N4CCOCC4)n4nc(C5=CC[N+](C)(C)CC5)cc4n3)n2)c1 [Ex. 29, 1,1-dimethyl-4-(7-morpholino-5-(3-(m-tolyl)-1H-pyrazol-1-yl)pyrazolo[1,5-a]pyrimidin-2-yl)-1,2,3,6-tetrahydropyridin-1-ium]
- % Inhib. (50 nM) ([1]; KINOMEScan Kinase Assay): +++ (>80%-100%)
